Measurements: US9216955B2, “Polymorphic form of Fexofenadine hydrochloride, intermediates and process for its preparation” ([…] S.R.L., priority 2010, dated 2015)

Conditions: solid form

CC(C)(C(=O)O)c1ccc(C(O)CCCN2CCC(C(O)(c3ccccc3)c3ccccc3)CC2)cc1.Cl (centres unmarked) [polymorph φ, 2-[4-[1-hydroxy-4-[4-(hydroxydiphenylmethyl)-1-piperidyl]-butyl]phenyl]-2-methylpropanoic acid]
deliquescence: not deliquescent | hygroscopicity: not hygroscopic
